This note sets out measurements from patent US20260001889A1, “COMPOSITIONS USEFUL FOR MODULATING SPLICING” (Skyhawk Therapeutics, Inc., priority 2022, published 2026).

One assay concerns ATXN3-HiBiT protein. The assay can be described thus: ATXN3 Total Protein Assay (Kelly-ATXN3-HiBiT luminescence). The class given is cell-based. As to conditions: Kelly-ATXN3-HiBiT cells, 48 h after addition of compound. A digest of the protocol:
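Kelly cells with homozygous C-terminal HiBiT knock-in on endogenous ATXN3, 2000 per well, dosed 24 h after seeding. HiBiT lytic luminescence read 48 h after compound; sister plate read with CellTiter-Glo for viability; fold change vs DMSO.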
(In general: The HiBiT peptide binds its large partner to form an active luciferase.)

Assay [1] concerns ATXN3 transcripts containing exon 4. The assay can be described thus: ATXN3 Quantitative Splicing Assay (qPCR, E4E5 primers/probe). The class given is cell-based. As to conditions: Homo sapiens, SK-N-MC cells, compounds for 24 h. A digest of the protocol: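 SK-N-MC human neuroblastoma cells treated 24 h with compound from 30 μM to 0.6 nM, 24 h after plating. Lysate cDNA was run in TaqMan qPCR, with primers/probe E4E5 detecting exon 4-containing ATXN3 transcripts and E8E9 measuring total ATXN3.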
(Quantitative PCR measures a nucleic acid by following its amplification.)

In another assay the test system is total ATXN3 protein. Description: ATXN3 Total Protein Assay (Mesoscale Discovery, SK-N-MC cells). The class given is cell-based, Human. As to conditions: incubation for 48 hours, MSD assay. As for the experimental part: Example 35: ATXN3 Total Protein Assay
Human neuroblastoma SK-N-MC cells were seeded at 10,000 cells/well in 384 well plates one day prior to compound treatment. The concentrations of compounds were tested at appropriate doses ranging from 30 μM to 0.6 nM. After incubation for 48 hours, the cells were lysed with 25 μL of lysis buffer containing protease inhibitors, and total ATXN3 protein levels were assessed by Mesoscale Discovery (MSD) assay developed with one pair of anti-ATXN3 antibodies. The capture and detect antibodies were raised in mouse and rabbit respectively. Anti-rabbit MSD-ST antibody was used for secondary antibody.
ATXN3 recombinant protein was used for standards. The readouts were captured with 35 μL of MSD read buffer and multi-array 384-well high binding plates.

As a reminder, the EC50 is the concentration at which the effect is half-maximal. By IC50 is commonly meant the point on the concentration scale where inhibition reaches its midpoint. The low end stands for inhibition by little substance, the high end for a need for much substance.

Structures are written as SMILES.

In turn, `C#Cc1c(C[C@@H](N)CC(F)(F)F)oc2c(NCc3cccs3)cc(Cl)nc12` [Compound 121, 2-[(R)-2-amino-4,4,4-trifluorobutyl]-5-chloro-3-ethynyl-7-thenylamino-1-oxa-4-azaindene] returned an EC50 in the assay with ATXN3-HiBiT protein of 101 to 500 nM. Further, the IC50 (in assay [1]; with total ATXN3 protein) was 101 to 500 nM throughout.
With `C=Cc1cc(NCc2cccs2)c2oc(C[C@H](C)N)c(Br)c2n1` [Compound 164, 2-[(S)-2-aminopropyl]-3-bromo-7-thenylamino-5-vinyl-1-oxa-4-azaindene], the EC50 in the assay on ATXN3-HiBiT protein was 501 to 5000 nM. In addition, the IC50 (in assay [1]; in the assay with total ATXN3 protein) was 5000 to 10000 nM in each case.
For the compound `C[C@H](N)C(F)(F)c1oc2c(NCc3ccco3)cc(Cl)nc2c1Cl` [Compound 239, 2-[(S)-2-amino-1,1-difluoropropyl]-3,5-dichloro-7-(furfurylamino)-1-oxa-4-azaindene], the EC50 in the assay on ATXN3-HiBiT protein was in the range of 101 to 500 nM. In addition, the IC50 (in assay [1]; in the assay on total ATXN3 protein) was 101 to 500 nM in each case.
In turn, `C#Cc1cc(NCc2cccs2)c2oc(C[C@@H](N)COC)c(Br)c2n1` [Compound 151, 2-[(R)-2-amino-3-methoxypropyl]-3-bromo-5-ethynyl-7-thenylamino-1-oxa-4-azaindene] came in with an EC50 in the assay with ATXN3-HiBiT protein of 0.01 to 100 nM. The results for the IC50 (in assay [1]; in the assay with total ATXN3 protein) were 0.01 to 100 nM and 101 to 500 nM, respectively.
Regarding `C[C@H](F)[C@H](N)Cc1oc2c(NCc3cccs3)cc(Cl)nc2c1-c1ccn(C)n1` [Compound 333, 2-[(2R,3S)-2-amino-3-fluorobutyl]-5-chloro-3-(1-methyl-3-pyrazolyl)-7-thenylamino-1-oxa-4-azaindene], the EC50 in the assay with ATXN3-HiBiT protein lay within 5000 to 10000 nM. Besides, the IC50 (in assay [1]; in the assay on total ATXN3 protein) was 501 to 5000 nM in each case.
In the assay on ATXN3-HiBiT protein, `C[C@H](F)[C@H](N)Cc1oc2c(NCc3cccs3)cc(Cl)nc2c1-c1ccco1` [Compound 331, 2-[(2R,3S)-2-amino-3-fluorobutyl]-5-chloro-3-(2-furyl)-7-thenylamino-1-oxa-4-azaindene] registered an EC50 of 501 to 5000 nM. Moreover, the IC50 (in assay [1]; with total ATXN3 protein) was 501 to 5000 nM each time.
On to `C[C@H](F)[C@H](N)Cc1oc2c(NCc3ccccc3)cc(Cl)nc2c1Cl` [Compound 110, 2-[(2R,3S)-2-amino-3-fluorobutyl]-7-benzylamino-3,5-dichloro-1-oxa-4-azaindene], for which the EC50 in the assay on ATXN3-HiBiT protein lay within 101 to 500 nM. The 50% inhibitory concentration (IC50) (in assay [1]; with total ATXN3 protein) was 101 to 500 nM in each case.
For `C#Cc1c(C[C@H](C)N)oc2c(NCc3cccs3)cc(Cl)nc12` [Compound 63, 2-[(2S)-2-aminopropyl]-5-chloro-3-ethynyl-N-(thiophen-2-ylmethyl)furo[3,2-b]pyridin-7-amine], in the assay with ATXN3-HiBiT protein, the EC50 lay in the range of 0.01 to 100 nM. The IC50 (in assay [1]; with total ATXN3 protein) was 0.01 to 100 nM throughout.
`C[C@H](F)[C@H](N)Cc1oc2c(NCc3cccs3)cc(Cl)nc2c1-c1ncco1` [Compound 312, 2-[(2R,3S)-2-amino-3-fluorobutyl]-5-chloro-3-(1,3-oxazol-2-yl)-7-thenylamino-1-oxa-4-azaindene]: the EC50 in the assay with ATXN3-HiBiT protein lay within 0.01 to 100 nM. Moreover, the IC50 (in assay [1]; in the assay on total ATXN3 protein) was 101 to 500 nM throughout.
On to `C#Cc1c(C[C@@H](N)[C@H](C)F)oc2c(NCc3cccs3)cc(Cl)nc12` [Compound 123, 2-[(2R,3S)-2-amino-3-fluorobutyl]-5-chloro-3-ethynyl-7-thenylamino-1-oxa-4-azaindene], for which the EC50 in the assay with ATXN3-HiBiT protein was in the range of 0.01 to 100 nM. In addition, the IC50 (in assay [1]; with total ATXN3 protein) was 0.01 to 100 nM throughout.
Turning to `Cc1c(C[C@@H](N)[C@H](C)F)oc2c(NCc3cccs3)cc(Cl)nc12` [Compound 41, 2-[(2R,3S)-2-amino-3-fluorobutyl]-5-chloro-3-methyl-7-thenylamino-1-oxa-4-azaindene], the EC50 with ATXN3-HiBiT protein was in the range of 0.01 to 100 nM. The IC50 (in assay [1]; in the assay on total ATXN3 protein) was 0.01 to 100 nM each time.
With `CC#C[C@@H](Cc1oc2c(NCc3cccs3)cc(Cl)nc2c1Br)NC` [Compound 295, 3-bromo-5-chloro-2-[(2R)-2-(methylamino)pent-3-yn-1-yl]-N-(thiophen-2-ylmethyl)furo[3,2-b]pyridin-7-amine], the EC50 in the assay with ATXN3-HiBiT protein is 101 to 500 nM. Also, the IC50 (in assay [1]; with total ATXN3 protein) was 501 to 5000 nM throughout.
Take `C[C@H](N)Cc1oc2c(NCc3ncco3)cc(Cl)nc2c1Br` [Compound 124, 2-[(2S)-2-aminopropyl]-3-bromo-5-chloro-N-(1,3-oxazol-2-ylmethyl) furo[3,2-b]pyridin-7-amine]: the EC50 with ATXN3-HiBiT protein was in the range of 501 to 5000 nM. Also, the half-maximal inhibitory concentration (IC50) (in assay [1]; in the assay with total ATXN3 protein) was 501 to 5000 nM throughout.
Compound `N[C@H](Cc1oc2c(NCc3cccs3)cc(Cl)nc2c1Cl)CC(F)(F)F` [Compound 25, 2-[(R)-2-amino-4,4,4-trifluorobutyl]-3,5-dichloro-7-thenylamino-1-oxa-4-azaindene] gave a half-maximal effective concentration (EC50) in the assay with ATXN3-HiBiT protein of 101 to 500 nM. Besides, the 50% inhibitory concentration (IC50) (in assay [1]; in the assay on total ATXN3 protein) was 501 to 5000 nM in each case.
As for `Cc1c(C[C@@H](N)[C@H](C)F)oc2c(NCc3cccs3)cc(C#N)nc12` [Compound 111, 2-[(2R,3S)-2-amino-3-fluorobutyl]-3-methyl-7-thenylamino-1-oxa-4-aza-5-indenecarbonitrile], the 50% effective concentration (EC50) in the assay on ATXN3-HiBiT protein was 101 to 500 nM. Besides, the IC50 (in assay [1]; in the assay with total ATXN3 protein) was 101 to 500 nM in each case.
In the assay with ATXN3-HiBiT protein, `Cc1cnc(-c2c(C[C@H](C)N)oc3c(NCc4cccs4)cc(Cl)nc23)o1` [Compound 322, 2-[(S)-2-aminopropyl]-5-chloro-3-(5-methyl-1,3-oxazol-2-yl)-7-thenylamino-1-oxa-4-azaindene] gave an EC50 of 501 to 5000 nM. Further, the IC50 (in assay [1]; in the assay on total ATXN3 protein) was 501 to 5000 nM in each case.
`[2H]C([2H])(Nc1cc(Cl)nc2c(Br)c(C[C@@H](N)CCOC(F)F)oc12)c1cccs1` [Compound 222, 2-[(S)-2-amino-4-difluoromethoxybutyl]-3-bromo-5-chloro-7-{[(2-thienyl)(^2H2)methyl]amino}-1-oxa-4-azaindene] showed an EC50 with ATXN3-HiBiT protein of 0.01 to 100 nM. Besides, the IC50 in assay [1] lay in the range of 101 to 500 nM; in the assay on total ATXN3 protein it was 0.01 to 100 nM.
In the assay with ATXN3-HiBiT protein, `COC[C@H](N)Cc1oc2c(NCc3ccncc3)cc(Cl)nc2c1Cl` [Compound 113, 2-[(R)-2-amino-3-methoxypropyl]-3,5-dichloro-7-{[(4-pyridyl)methyl]amino}-1-oxa-4-azaindene] showed an EC50 of 101 to 500 nM. The IC50 (in assay [1]; in the assay with total ATXN3 protein) was 101 to 500 nM throughout.
Consider `COC[C@H](N)C(F)(F)c1oc2c(NCc3cccs3)cc(Cl)nc2c1Br` [Compound 193, 2-[(S)-2-amino-1,1-difluoro-3-methoxypropyl]-3-bromo-5-chloro-7-thenylamino-1-oxa-4-azaindene], for which, in the assay with ATXN3-HiBiT protein, the EC50 was 501 to 5000 nM. The IC50 (in assay [1]; in the assay with total ATXN3 protein) was 501 to 5000 nM throughout.
For `C#Cc1cc(NCc2cccs2)c2oc(C[C@H](C)N)c(C)c2n1` [Compound 40, 2-[(S)-2-aminopropyl]-5-ethynyl-3-methyl-7-thenylamino-1-oxa-4-azaindene], the EC50 in the assay with ATXN3-HiBiT protein is 501 to 5000 nM. Also, the IC50 (in assay [1]; in the assay on total ATXN3 protein) was 501 to 5000 nM throughout.
For `C#Cc1cc(NCc2ccco2)c2oc(C[C@H](C)N)c(Br)c2n1` [Compound 112, 2-[(S)-2-aminopropyl]-3-bromo-5-ethynyl-7-(furfurylamino)-1-oxa-4-azaindene], the EC50 in the assay with ATXN3-HiBiT protein lay within 0.01 to 100 nM. The IC50 (in assay [1]; with total ATXN3 protein) was 101 to 500 nM each time.
In the assay with ATXN3-HiBiT protein, `C[C@H](N)Cc1oc2c(NCc3cccs3)cc(Cl)nc2c1-c1ccn(C)n1` [Compound 317, 2-[(S)-2-aminopropyl]-5-chloro-3-(1-methyl-3-pyrazolyl)-7-thenylamino-1-oxa-4-azaindene] yielded an EC50 of 501 to 5000 nM. In addition, the IC50 (in assay [1]; in the assay with total ATXN3 protein) was 10000 to 40000 nM each time.
As to `C[C@H](N)Cc1oc2c(NCc3cccs3)cc(Cl)nc2c1-c1ccsc1` [Compound 260, 2-[(S)-2-aminopropyl]-5-chloro-7-thenylamino-3-(3-thienyl)-1-oxa-4-azaindene], in the assay with ATXN3-HiBiT protein, the EC50 lay in the range of 10000 to 40000 nM. Also, the IC50 in assay [1] lay within 10000 to 40000 nM; in the assay with total ATXN3 protein it was 501 to 5000 nM.
Compound `C[C@H](N)Cc1oc2c(NCc3cccs3)c(F)c(Cl)nc2c1Br` [Compound 275, 2-[(S)-2-aminopropyl]-3-bromo-5-chloro-6-fluoro-7-thenylamino-1-oxa-4-azaindene] had an EC50 in the assay with ATXN3-HiBiT protein of 501 to 5000 nM. The IC50 (in assay [1]; in the assay on total ATXN3 protein) was 501 to 5000 nM throughout.
`C[C@H](F)[C@H](N)Cc1oc2c(NCc3ccco3)cc(Cl)nc2c1Br` [Compound 118, 2-[(2R,3S)-2-amino-3-fluorobutyl]-3-bromo-5-chloro-7-(furfurylamino)-1-oxa-4-azaindene] yielded an EC50 with ATXN3-HiBiT protein of 0.01 to 100 nM. The IC50 (in assay [1]; in the assay with total ATXN3 protein) was 0.01 to 100 nM throughout.
For `C[C@H](F)[C@H](N)Cc1oc2c(NCc3ccccc3)cc(Cl)nc2c1Br` [Compound 92, 2-[(2R,3S)-2-amino-3-fluorobutyl]-7-benzylamino-3-bromo-5-chloro-1-oxa-4-azaindene], the concentration for a half-maximal effect (EC50) with ATXN3-HiBiT protein lay within 101 to 500 nM. For the same compound, the IC50 (in assay [1]; in the assay on total ATXN3 protein) was 101 to 500 nM throughout.
`N[C@@H](CO)Cc1oc2c(NCc3cccs3)cc(Cl)nc2c1Br` [Compound 20, (R)-2-amino-3-(3-bromo-5-chloro-7-thenylamino-1-oxa-4-aza-2-indenyl)-1-propanol] gave an EC50 with ATXN3-HiBiT protein of 0.01 to 100 nM. In addition, the IC50 (in assay [1]; in the assay with total ATXN3 protein) was 0.01 to 100 nM each time.
